{"source": "patent US12514830B2", "about": "“Idebenone for the treatment of Acute Respiratory Distress Syndrome (ARDS) in patients diagnosed with a coronavirus infection” (BEMIDO SA, priority 2020, dated 2026)", "origin": "cited, not measured here", "test_system": "patients with Duchenne muscular dystrophy (DMD)", "conditions": "long-term treatment, for up to 6 years, real-world setting"}
{"smiles": "COC1=C(OC)C(=O)C(CCCCCCCCCCO)=C(C)C1=O", "note": "[idebenone, 2-(10-hydroxydecyl)-5,6-dimethoxy-3-methyl-cyclohexa-2,5-diene-1,4-dione]", "values": [{"measurement": "rate of respiratory function loss", "result": "consistently reduced the rate of respiratory function loss"}]}
